This note sets out measurements from PubChem BioAssay AID248 (DTP/NCI, 2004).

Molecules are shown by their SMILES. Inconclusive results and toxic doses are left out.

This assay deals with L1210 leukemia ip in BDF1 mice, survival T/C. Nature of the assay: NCI In Vivo Anticancer Drug Screen. Data for tumor model L1210 Leukemia (intraperitoneal) in B6D2F1 (BDF1) mice. Particulars: endpoint: mean survival time, higher = longer survival. The method, boiled down:
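Each compound was tested against a transplantable tumor grown in mice. The endpoint was survival, with treated animals benchmarked against vehicle controls as a simple ratio.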

Setting [1] is: dose: 50.0 mg/kg/injection, schedule: Q01DX001 (ip), vehicle: saline.
The mark [2] stands for this setting: dose: 100.0 mg/kg/injection, schedule: Q01DX001 (ip), vehicle: saline.
Setting [3] is: dose: 200.0 mg/kg/injection, schedule: Q01DX001 (ip), vehicle: saline.
Setting [4] is: dose: 100.0 mg/kg/injection, schedule: Q01DX009 (ip), vehicle: saline with Tween-80.
Where [5] appears, read: dose: 200.0 mg/kg/injection, schedule: Q01DX009 (ip), vehicle: saline with Tween-80.
[6] abbreviates: dose: 100.0 mg/kg/injection, schedule: Q01DX009 (ip), vehicle: Klucel (hydroxypropylcellulose) (HPC).
Where [7] appears, read: dose: 200.0 mg/kg/injection, schedule: Q01DX009 (ip), vehicle: Klucel (hydroxypropylcellulose) (HPC).
Setting [8] is: dose: 400.0 mg/kg/injection, schedule: Q01DX009 (ip), vehicle: Klucel (hydroxypropylcellulose) (HPC).
Where [9] appears, read: dose: 100.0 mg/kg/injection, schedule: Q04DX003 (ip), vehicle: saline with Tween-80.
Setting [10] is: dose: 200.0 mg/kg/injection, schedule: Q04DX003 (ip), vehicle: saline with Tween-80.
[11] abbreviates: dose: 400.0 mg/kg/injection, schedule: Q04DX003 (ip), vehicle: saline with Tween-80.

Take `O=C(CNC(=O)c1ccc(C(=O)NCC(=O)Nc2ccc(C3=NCCCN3)cc2)cc1)Nc1ccc(C2=NCCCN2)cc1`: the T/C was 101 % of control (dose: 0.62 mg/kg/injection, schedule: Q01DX015 (ip), vehicle: methylcellulose (MC)); 97 % of control (dose: 1.25 mg/kg/injection, schedule: Q01DX009 (ip), vehicle: saline); 98 % of control (dose: 1.25 mg/kg/injection, schedule: Q01DX015 (ip), vehicle: methylcellulose (MC)); 110 % of control (dose: 2.5 mg/kg/injection, schedule: Q01DX009 (ip), vehicle: saline); 98 % of control (dose: 2.5 mg/kg/injection, schedule: Q01DX015 (ip), vehicle: methylcellulose (MC)); 116 % of control (dose: 3.75 mg/kg/injection, schedule: Q01DX015 (ip), vehicle: methylcellulose (MC)). Also, the T/C is 113 % of control (dose: 10.0 mg/kg/injection, schedule: Q01DX009 (ip), vehicle: saline); 229 % of control (dose: 20.0 mg/kg/injection, schedule: Q01DX015 (ip), vehicle: methylcellulose (MC)); 106 % of control (dose: 25.0 mg/kg/injection, schedule: Q01DX001 (ip), vehicle: methylcellulose (MC)); 186 % of control (dose: 30.0 mg/kg/injection, schedule: Q01DX015 (ip), vehicle: methylcellulose (MC)); 153 % of control (dose: 40.0 mg/kg/injection, schedule: Q01DX009 (ip), vehicle: saline); 191 % of control (dose: 40.0 mg/kg/injection, schedule: Q01DX015 (ip), vehicle: methylcellulose (MC)). For the same compound, the T/C was 113 % of control (dose: 50.0 mg/kg/injection, schedule: Q01DX001 (ip), vehicle: methylcellulose (MC)); 256 % of control (dose: 60.0 mg/kg/injection, schedule: Q01DX009 (ip), vehicle: Klucel (hydroxypropylcellulose) (HPC)); 300 % of control (dose: 80.0 mg/kg/injection, schedule: Q01DX009 (ip), vehicle: Klucel (hydroxypropylcellulose) (HPC)); 115 % of control (dose: 120.0 mg/kg/injection, schedule: Q01DX009 (ip), vehicle: Klucel (hydroxypropylcellulose) (HPC)); 102 % of control (dose: 160.0 mg/kg/injection, schedule: Q01DX009 (ip), vehicle: Klucel (hydroxypropylcellulose) (HPC)).
As for `c1ccc2c[n+]3cc4ccccc4cc3cc2c1`, the T/C reads like this: (dose: 6.25 mg/kg/injection, schedule: Q01DX009 (ip), vehicle: saline) 101 % of control; (dose: 12.5 mg/kg/injection, schedule: Q01DX009 (ip), vehicle: saline) 104 % of control; (dose: 25.0 mg/kg/injection, schedule: Q01DX009 (ip), vehicle: saline) 104 % of control; (dose: 35.0 mg/kg/injection, schedule: Q01DX009 (ip), vehicle: saline) 95 % of control.
For `CC(=O)c1c(C)cc(C)c(CC(=O)O)c1C`, the T/C reads like this: (dose: 75.0 mg/kg/injection, schedule: Q01DX009 (ip), vehicle: Klucel (hydroxypropylcellulose) (HPC)) 104 % of control; (dose: 150.0 mg/kg/injection, schedule: Q01DX009 (ip), vehicle: Klucel (hydroxypropylcellulose) (HPC)) 97 % of control; (dose: 300.0 mg/kg/injection, schedule: Q01DX009 (ip), vehicle: Klucel (hydroxypropylcellulose) (HPC)) 93 % of control.
Regarding `OC(CNc1ccccc1)CN1CCN(CC(O)CNc2ccccc2)CC1` (stereo not given), the T/C is, setting by setting: under setting [1], 105 % of control; under setting [2], 98 % of control; under setting [3], 94 % of control.
As for `COc1cc(N=Nc2ccc([N+](=O)[O-])cc2)c(OC)cc1N`, the T/C (dose: 5.0 mg/kg/injection, schedule: Q01DX001 (ip), vehicle: other) was 98 % of control; the T/C (dose: 10.0 mg/kg/injection, schedule: Q01DX001 (ip), vehicle: other) is 101 % of control; the T/C (dose: 20.0 mg/kg/injection, schedule: Q01DX001 (ip), vehicle: other) is 98 % of control; the T/C (dose: 40.0 mg/kg/injection, schedule: Q01DX001 (ip), vehicle: other) was 101 % of control.
With `C/C=C/C(OC(C)=O)OC(C)=O`, the T/C by setting is: (dose: 50.0 mg/kg/injection, schedule: Q01DX009 (ip), vehicle: saline with Tween-80) 101 % of control; under setting [4], 101 % of control; under setting [5], 101 % of control.
On to `CC(C)(C)/C=N/Nc1ccc([N+](=O)[O-])cc1[N+](=O)[O-]`, for which the T/C is 108 % of control under setting [6], 106 % of control under setting [7] and 102 % of control under setting [8].
As for `Cc1ccccc1-n1c(O)c(N=Nc2ccc(Cl)cc2)c(=O)n(-c2ccccc2)c1=S`, the T/C was 87 % of control (dose: 100.0 mg/kg/injection, schedule: Q01DX001 (ip), vehicle: Klucel (hydroxypropylcellulose) (HPC)) and 109 % of control (dose: 200.0 mg/kg/injection, schedule: Q01DX001 (ip), vehicle: Klucel (hydroxypropylcellulose) (HPC)).
For `Nc1c(Cl)ncnc1Nc1ccc(C(=O)O)cc1`, the T/C runs as follows: under setting [1], 96 % of control; under setting [2], 98 % of control; under setting [3], 96 % of control; (dose: 400.0 mg/kg/injection, schedule: Q01DX001 (ip), vehicle: saline) 96 % of control.
For the compound `CC(C)C/C=C/C(=O)CC(=O)OC(C)C`, the T/C (dose: 75.0 mg/kg/injection, schedule: Q01DX001 (ip), vehicle: other) was 97 % of control; the T/C (dose: 150.0 mg/kg/injection, schedule: Q01DX001 (ip), vehicle: other) is 101 % of control; the T/C (dose: 300.0 mg/kg/injection, schedule: Q01DX001 (ip), vehicle: other) was 117 % of control.
In the case of `CCCCCC(=O)Oc1ccccc1C(=O)O`, the T/C was 100 % of control (dose: 50.0 mg/kg/injection, schedule: Q01DX001 (ip), vehicle: carboxymethylcellulose (CMC)); 100 % of control (dose: 100.0 mg/kg/injection, schedule: Q01DX001 (ip), vehicle: carboxymethylcellulose (CMC)); 97 % of control (dose: 200.0 mg/kg/injection, schedule: Q01DX001 (ip), vehicle: carboxymethylcellulose (CMC)); 92 % of control (dose: 400.0 mg/kg/injection, schedule: Q01DX001 (ip), vehicle: carboxymethylcellulose (CMC)).
Turning to `CCOc1ccc(C(=O)Cc2ccccc2)cc1`, the T/C was 89 % of control under setting [9], 86 % of control under setting [10] and 91 % of control under setting [11].
Take `CCOP(=O)(CI)Oc1ccc([N+](=O)[O-])cc1` (stereo not given): the T/C was 100 % of control (dose: 0.5 mg/kg/injection, schedule: Q01DX001 (ip), vehicle: saline); 102 % of control (dose: 1.0 mg/kg/injection, schedule: Q01DX001 (ip), vehicle: saline); 100 % of control (dose: 2.0 mg/kg/injection, schedule: Q01DX001 (ip), vehicle: saline).
`c1ccc2c(C3OCC4(CCC4)CO3)cccc2c1`: the T/C under setting [6] was 91 % of control; the T/C (dose: 100.0 mg/kg/injection, schedule: Q04DX003 (ip), vehicle: Klucel (hydroxypropylcellulose) (HPC)) is 91 % of control; the T/C under setting [7] was 96 % of control; the T/C (dose: 200.0 mg/kg/injection, schedule: Q04DX003 (ip), vehicle: Klucel (hydroxypropylcellulose) (HPC)) is 100 % of control; the T/C under setting [8] was 97 % of control; the T/C (dose: 400.0 mg/kg/injection, schedule: Q04DX003 (ip), vehicle: Klucel (hydroxypropylcellulose) (HPC)) is 94 % of control.
Take `Clc1ccc(C=Nc2cccc3ccccc23)cc1Cl`: the T/C is, setting by setting: under setting [4], 95 % of control; under setting [5], 95 % of control; (dose: 400.0 mg/kg/injection, schedule: Q01DX009 (ip), vehicle: saline with Tween-80) 94 % of control.
On to `COCCNCCOC`, for which the T/C was 106 % of control (dose: 50.0 mg/kg/injection, schedule: Q04DX003 (ip), vehicle: saline); 103 % of control (dose: 100.0 mg/kg/injection, schedule: Q01DX009 (ip), vehicle: saline); 100 % of control (dose: 100.0 mg/kg/injection, schedule: Q04DX003 (ip), vehicle: saline); 98 % of control (dose: 200.0 mg/kg/injection, schedule: Q01DX009 (ip), vehicle: saline); 122 % of control (dose: 200.0 mg/kg/injection, schedule: Q04DX003 (ip), vehicle: saline); 104 % of control (dose: 400.0 mg/kg/injection, schedule: Q01DX009 (ip), vehicle: saline). Further, the T/C (dose: 400.0 mg/kg/injection, schedule: Q04DX003 (ip), vehicle: saline) was 103 % of control.
As to `C/C=C/C(=O)Nc1cccc(OC(=O)NC(C)CC)c1` (stereo not given), the T/C reads like this: under setting [9], 98 % of control; under setting [10], 87 % of control; under setting [11], 93 % of control.
